Paper PMC9920254 (Molecules, 2023)

Assays:
UGT1A9 = molecular target: T1, UGT1A9 (Homo sapiens, UniProt O60656); experiment: Chemical inhibition assay of PND metabolism in HLM, UGT1A9 inhibitor; type: in vitro ADME; conditions: liver microsomes, probe PND (2 µM), overall metabolism of PND, niflumic acid 5 μM
T1 construct: Male Mongolia human microsomes (HLM), prepared from 30 male donors (19–78 years old); tissue RILD Liver Disease Research Co., Ltd. (Shanghai, China); host or cells: pooled human liver microsomes, 30 male donors
T1 sequence (O60656 26-530): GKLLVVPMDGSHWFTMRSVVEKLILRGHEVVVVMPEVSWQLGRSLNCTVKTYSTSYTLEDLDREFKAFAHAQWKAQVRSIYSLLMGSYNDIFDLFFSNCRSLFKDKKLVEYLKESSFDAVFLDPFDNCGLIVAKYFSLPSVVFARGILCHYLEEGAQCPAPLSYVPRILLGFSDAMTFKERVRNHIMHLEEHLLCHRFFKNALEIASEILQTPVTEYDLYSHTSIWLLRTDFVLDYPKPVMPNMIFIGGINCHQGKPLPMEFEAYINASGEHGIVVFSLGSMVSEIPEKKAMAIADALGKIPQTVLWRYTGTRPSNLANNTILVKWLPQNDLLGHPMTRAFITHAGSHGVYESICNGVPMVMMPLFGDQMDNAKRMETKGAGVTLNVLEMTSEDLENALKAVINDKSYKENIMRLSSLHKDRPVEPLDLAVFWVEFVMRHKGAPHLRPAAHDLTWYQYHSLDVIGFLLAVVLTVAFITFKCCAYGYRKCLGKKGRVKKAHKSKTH

CYP3A4 = experiment: in vitro; conditions: male, Sprague-Dawley (rat), Kunming (mouse), human, liver microsomes, probe PND (2 µM)
UGT1A1 = molecular target: T2, UGT1A1 (Rattus norvegicus, UniProt Q64550); experiment: Chemical inhibition assay of PND metabolism in RLM, UGT1A1 inhibitor; type: in vitro ADME; conditions: liver microsomes, pH 7.4, probe PND (2 µM), overall metabolism of PND, bilirubin 100 μM
T2 construct: rat liver microsomes (RLMs) were prepared with 6 Sprague-Dawley males (6–8 weeks); from tissue; host or cells: liver microsomes of male Sprague-Dawley rats, prepared in house
T2 sequence (Q64550 30-535): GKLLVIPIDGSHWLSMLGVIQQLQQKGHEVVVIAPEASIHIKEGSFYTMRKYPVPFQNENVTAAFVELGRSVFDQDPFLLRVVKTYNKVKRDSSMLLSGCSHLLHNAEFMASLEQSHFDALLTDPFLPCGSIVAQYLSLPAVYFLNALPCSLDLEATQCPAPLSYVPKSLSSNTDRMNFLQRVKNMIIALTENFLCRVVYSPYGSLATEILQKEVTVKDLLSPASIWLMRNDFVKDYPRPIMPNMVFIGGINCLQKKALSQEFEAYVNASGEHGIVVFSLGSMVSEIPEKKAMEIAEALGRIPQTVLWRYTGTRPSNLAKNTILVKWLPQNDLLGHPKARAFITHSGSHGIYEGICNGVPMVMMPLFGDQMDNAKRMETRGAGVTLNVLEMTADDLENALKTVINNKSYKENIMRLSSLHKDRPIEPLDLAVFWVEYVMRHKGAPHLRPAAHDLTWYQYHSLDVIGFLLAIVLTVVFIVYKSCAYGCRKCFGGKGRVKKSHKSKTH

CYP2E1 = experiment: Chemical inhibition assay of PND metabolism in LMs, CYP2E1 inhibitor; type: in vitro ADME, rat, mouse and human; conditions: disulfiram 50 μM (CYP2E1 inhibitor), PND 2 µM, LMs 0.5 mg protein/mL
CYP2C9 (CYP2C6) = experiment: in vitro; conditions: male, Sprague-Dawley (rat), Kunming (mouse), human, liver microsomes, probe PND (2 µM)
UGT1A6 [1] = molecular target: T3, UGT1A6 (Homo sapiens, UniProt P19224); experiment: Chemical inhibition assay of PND metabolism in human LMs, UGT1A6 inhibitor; type: in vitro ADME; conditions: liver microsomes, probe PND (2 µM), overall metabolism of PND, troglitazone 250 μM
T3 construct: Male Mongolia human microsomes (HLM), prepared from 30 male donors (19–78 years old); tissue RILD Liver Disease Research Co., Ltd. (Shanghai, China); host or cells: pooled human liver microsomes, 30 male donors
T3 sequence (P19224 27-532): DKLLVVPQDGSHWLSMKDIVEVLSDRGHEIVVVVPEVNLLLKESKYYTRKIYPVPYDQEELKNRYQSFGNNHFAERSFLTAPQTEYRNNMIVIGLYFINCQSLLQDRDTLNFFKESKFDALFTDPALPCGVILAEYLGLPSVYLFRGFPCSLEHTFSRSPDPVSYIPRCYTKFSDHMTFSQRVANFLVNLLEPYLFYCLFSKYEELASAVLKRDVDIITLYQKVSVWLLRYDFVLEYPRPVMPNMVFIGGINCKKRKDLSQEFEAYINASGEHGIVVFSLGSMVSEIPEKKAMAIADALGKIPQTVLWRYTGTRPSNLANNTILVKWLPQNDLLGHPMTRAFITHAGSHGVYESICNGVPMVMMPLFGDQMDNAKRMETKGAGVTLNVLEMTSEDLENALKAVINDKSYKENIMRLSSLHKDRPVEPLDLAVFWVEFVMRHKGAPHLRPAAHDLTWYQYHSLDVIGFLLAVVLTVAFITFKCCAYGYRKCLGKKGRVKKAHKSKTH

UGT1A6 [2] = molecular target: T4, UGT1A6 (Rattus norvegicus, UniProt P08430); experiment: Chemical inhibition assay of PND metabolism in RLM, UGT1A6 inhibitor; type: in vitro ADME; conditions: liver microsomes, pH 7.4, probe PND (2 µM), overall metabolism of PND, troglitazone 250 μM
T4 construct: rat liver microsomes (RLMs) were prepared with 6 Sprague-Dawley males (6–8 weeks); from tissue; host or cells: liver microsomes of male Sprague-Dawley rats, prepared in house
T4 sequence (P08430 26-529): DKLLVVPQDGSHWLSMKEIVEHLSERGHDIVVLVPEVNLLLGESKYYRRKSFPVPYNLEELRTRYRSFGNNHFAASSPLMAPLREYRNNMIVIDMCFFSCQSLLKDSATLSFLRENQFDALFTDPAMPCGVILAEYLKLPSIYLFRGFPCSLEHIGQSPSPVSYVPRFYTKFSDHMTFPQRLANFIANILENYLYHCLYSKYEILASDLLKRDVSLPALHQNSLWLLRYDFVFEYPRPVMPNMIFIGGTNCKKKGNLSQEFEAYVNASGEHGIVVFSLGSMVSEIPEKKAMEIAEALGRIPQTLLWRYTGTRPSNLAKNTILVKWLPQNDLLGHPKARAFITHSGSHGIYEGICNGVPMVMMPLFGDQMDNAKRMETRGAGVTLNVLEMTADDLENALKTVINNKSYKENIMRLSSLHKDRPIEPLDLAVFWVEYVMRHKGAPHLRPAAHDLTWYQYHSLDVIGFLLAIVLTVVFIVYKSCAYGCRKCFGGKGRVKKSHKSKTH

UGT1A6 [3] = molecular target: T5, UGT1A6 (Mus musculus, UniProt Q64435); experiment: Chemical inhibition assay of PND metabolism in MLM, UGT1A6 inhibitor; type: in vitro ADME; conditions: liver microsomes, pH 7.4, probe PND (2 µM), overall metabolism of PND, troglitazone 250 μM
T5 construct: Mouse liver microsomes (MLM) were prepared with 10 Kunming males (6–8 weeks); from tissue; host or cells: liver microsomes of male Kunming mice, prepared in house
T5 sequence (Q64435 27-531): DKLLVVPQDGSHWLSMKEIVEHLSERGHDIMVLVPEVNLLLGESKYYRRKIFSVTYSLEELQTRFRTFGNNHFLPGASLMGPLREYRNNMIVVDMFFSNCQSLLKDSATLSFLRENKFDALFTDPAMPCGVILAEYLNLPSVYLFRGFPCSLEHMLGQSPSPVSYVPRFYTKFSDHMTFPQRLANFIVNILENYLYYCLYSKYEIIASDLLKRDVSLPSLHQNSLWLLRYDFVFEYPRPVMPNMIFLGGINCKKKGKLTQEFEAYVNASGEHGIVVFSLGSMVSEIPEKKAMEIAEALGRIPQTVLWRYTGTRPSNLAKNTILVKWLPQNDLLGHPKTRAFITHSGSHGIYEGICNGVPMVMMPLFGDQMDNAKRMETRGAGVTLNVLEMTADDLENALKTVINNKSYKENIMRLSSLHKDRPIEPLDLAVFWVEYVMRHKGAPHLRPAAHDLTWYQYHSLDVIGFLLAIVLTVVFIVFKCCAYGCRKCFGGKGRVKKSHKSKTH

O=C(O)c1cccnc1Nc1cccc(C(F)(F)F)c1 [niflumic acid]
inhibition at 90 min, 5 μM (UGT1A9): 36.7%

CC(=O)N1CCN(c2ccc(OCC3COC(Cn4ccnc4)(c4ccc(Cl)cc4Cl)O3)cc2)CC1 (centres unmarked) [ketoconazole]
inhibition at 2 µM (CYP3A4): 19 to 48%

C=CC1=C(C)/C(=C/c2[nH]c(Cc3[nH]c(/C=C4\NC(=O)C(C)=C4C=C)c(C)c3CCC(=O)O)c(CCC(=O)O)c2C)NC1=O [bilirubin]
inhibition at 90 min, 100 μM (UGT1A1): 64.3%

CCN(CC)C(=S)SSC(=S)N(CC)CC [disulfiram]
Effect on metabolism of PND in LMs (CYP2E1): decreased significantly

Nc1ccc(S(=O)(=O)Nc2ccnn2-c2ccccc2)cc1 [sulphafenazole]
inhibition at 100 µM (CYP2C9 (CYP2C6)): 19 to 48%

Cc1c(C)c2c(c(C)c1O)CCC(C)(COc1ccc(CC3SC(=O)NC3=O)cc1)O2 (centres unmarked) [troglitazone]
inhibition at 90 min, 250 μM (UGT1A6 [1]): 17.3% | inhibition at 90 min, 250 μM (UGT1A6 [2]): 68.6% | inhibition at 90 min, 250 μM (UGT1A6 [3]): 61.8%
